Earlier results, collected in US20260273014A1, “Herbal composition for metabolic syndromes and method of treatment thereof” (priority 2019, published 2026).

Conditions: pure mangiferin (Acosta et al. 2016)

Q: Which solubility does the source give for `O=c1c2cc(O)c(O)cc2oc2cc(O)c([C@@H]3O[C@H](CO)[C@@H](O)[C@H](O)[C@H]3O)c(O)c12` [mangiferin] here?
A: Its solubility is “an issue in most biological models”.
